The source of these data is US11214803B2, “Modulators of YAP1 expression” (Ionis Pharmaceuticals, Inc., priority 2019, dated 2022).

Strand notation (5' to 3'): a small letter for the sugar, then the base; units joined by * are phosphorothioate-linked, units joined directly phosphodiester-linked; [ ] holds rarer units or linkages, { } end groups; capitals alone tell only the bases. k = constrained ethyl (cEt); [5mC] = 5-methylcytosine; d = 2'-deoxy (DNA)

One series relates to Yap1 mRNA. The series can be described thus: Antisense inhibition of human Yap1 in A-431 cells by cEt gapmers, single dose (Example 4, RTS4814). It counts as cell-based. The conditions noted are these: Table 14; A-431 cells, 5,000 cells per well, free uptake, 2,000 nM, approximately 48 hours; RTS4814; normalized to RIBOGREEN; Yap1 mRNA relative to untreated control; * = targets amplicon region of primer probe set. A digest of the protocol:
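A-431 cells took up 3-10-3 cEt gapmers (16-mer, full phosphorothioate, 5-methylcytosines) by free uptake at 2,000 nM for about 48 h. Yap1 mRNA was quantified by qRT-PCR, normalized to total RNA (RIBOGREEN), and reported as % of untreated control.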
For the substance “1074976 (antisense kT*kT*k[5mC]*dT*dA*dT*dT*dG*dG*dA*dA*dG*dA*k[5mC]*k[5mC]*kA) [Compound 1074976]”, the “YAP1 (% UTC)” value is on record as 35 % UTC.
The same measure, in the same setting: then “1075008 (antisense kT*kA*kA*dT*d[5mC]*dG*dA*dA*d[5mC]*dA*dT*dT*dG*kT*kG*kT) [Compound 1075008]”, with 61 % UTC.
Regarding “1075040 (antisense kT*kT*kA*dT*dA*dA*dA*dG*dA*dG*dG*d[5mC]*dT*k[5mC]*kA*kG) [Compound 1075040]”, the “YAP1 (% UTC)” value was found to be 10 % UTC.
“1075072 (antisense kT*k[5mC]*k[5mC]*dG*dG*dG*dT*dA*dA*dA*dT*dA*dT*k[5mC]*kT*k[5mC]) [Compound 1075072]”: the “YAP1 (% UTC)” value was found to be 37 % UTC.
Regarding “1075104 (antisense kA*kT*kT*dA*dT*dA*dA*dG*dG*dT*d[5mC]*d[5mC]*dT*kA*k[5mC]*kA) [Compound 1075104]”, the “YAP1 (% UTC)” value is on record as 67 % UTC.
Still for that read-out and setting: for “1075136 (antisense k[5mC]*kT*kA*dG*dA*dA*dT*dA*dT*dT*dA*dA*dA*kG*kG*kG) [Compound 1075136]” the value was 87 % UTC; for “1075168 (antisense k[5mC]*kA*kT*d[5mC]*dA*dA*dA*dA*dT*dT*dT*d[5mC]*dA*k[5mC]*kG*kA) [Compound 1075168]”, 49 % UTC; for “1075200 (antisense k[5mC]*kA*kT*dA*dT*dT*dA*dA*d[5mC]*dT*dA*dG*dA*kT*kG*kA) [Compound 1075200]”, 120 % UTC.

Staying with this series, now noted: Table 15; A-431 cells, 5,000 cells per well, free uptake, 2,000 nM, approximately 48 hours; RTS4814; normalized to RIBOGREEN; Yap1 mRNA relative to untreated control; * = targets amplicon region of primer probe set.
On to “1074977 (antisense k[5mC]*kT*kT*dG*dT*dT*d[5mC]*dT*dA*dT*dT*dG*dG*kA*kA*kG) [Compound 1074977]”, for which the “YAP1 (% UTC)” value worked out at 94 % UTC.
For “1075009 (antisense kA*kT*kA*dA*dT*d[5mC]*dG*dA*dA*d[5mC]*dA*dT*dT*kG*kT*kG) [Compound 1075009]”, the “YAP1 (% UTC)” value is recorded as 43 % UTC.
For “1075041 (antisense kG*kA*kT*dT*dA*dT*dA*dA*dA*dG*dA*dG*dG*k[5mC]*kT*k[5mC]) [Compound 1075041]”, the “YAP1 (% UTC)” value is 5 % UTC.
Turning to “1075073 (antisense k[5mC]*kA*kT*dA*dA*dA*dA*dG*dT*dT*d[5mC]*d[5mC]*d[5mC]*k[5mC]*kA*kG) [Compound 1075073]”, the “YAP1 (% UTC)” value was determined as 51 % UTC.
For the substance “1075105 (antisense kA*kA*kT*dT*dA*dT*dA*dA*dG*dG*dT*d[5mC]*d[5mC]*kT*kA*k[5mC]) [Compound 1075105]”, the “YAP1 (% UTC)” value is 42 % UTC.
The same measure, in the same setting: for “1075137 (antisense kG*kA*kT*dT*dA*dA*dA*dT*dA*d[5mC]*dT*dG*dA*k[5mC]*k[5mC]*kA) [Compound 1075137]” the value was 3 % UTC; for “1075169 (antisense kA*kA*kA*dA*d[5mC]*dG*dG*dA*dG*dT*dA*dA*dT*kG*k[5mC]*k[5mC]) [Compound 1075169]”, 39 % UTC; for “1075201 (antisense k[5mC]*kT*kT*dT*dA*dA*dA*dG*d[5mC]*d[5mC]*d[5mC]*dT*dA*kA*kT*kT) [Compound 1075201]”, 114 % UTC.

The same series, now with this note: Table 16; A-431 cells, 5,000 cells per well, free uptake, 2,000 nM, approximately 48 hours; RTS4814; normalized to RIBOGREEN; Yap1 mRNA relative to untreated control cells.
For “1074978 (antisense kT*kT*kG*d[5mC]*d[5mC]*dA*dG*dT*dT*d[5mC]*dT*dT*dG*kT*kT*k[5mC]) [Compound 1074978]”, the “YAP1 (% UTC)” value is given as 38 % UTC.
Turning to “1075010 (antisense kA*kA*kT*dA*dA*dT*d[5mC]*dG*dA*dA*d[5mC]*dA*dT*kT*kG*kT) [Compound 1075010]”, the “YAP1 (% UTC)” value was found to be 88 % UTC.
With “1075042 (antisense kT*kT*kA*dA*dA*dA*dG*dG*dT*dT*dT*dG*dG*k[5mC]*kA*k[5mC]) [Compound 1075042]”, the “YAP1 (% UTC)” value was 17 % UTC.
As for “1075074 (antisense kT*kA*kT*dA*dG*dT*dA*dA*dG*dA*d[5mC]*dT*dA*kA*kT*k[5mC]) [Compound 1075074]”, the “YAP1 (% UTC)” value was 105 % UTC.
In the case of “1075106 (antisense k[5mC]*kA*kA*dA*dT*dT*dA*dT*dA*dA*dG*dG*dT*k[5mC]*k[5mC]*kT) [Compound 1075106]”, the “YAP1 (% UTC)” value is recorded as 10 % UTC.
For “1075138 (antisense kA*kA*kT*dA*dA*dT*dA*dG*dA*dT*dA*d[5mC]*dT*kG*k[5mC]*k[5mC]) [Compound 1075138]”, the “YAP1 (% UTC)” value is 4 % UTC.
For the substance “1075170 (antisense kA*k[5mC]*kT*dA*dA*dA*dA*dT*d[5mC]*d[5mC]*d[5mC]*d[5mC]*dA*kA*kG*kG) [Compound 1075170]”, the “YAP1 (% UTC)” value is on record as 94 % UTC.
“1075202 (antisense kA*kA*kT*dT*dA*dT*dA*dT*dA*dA*dG*dG*d[5mC]*kT*kG*kT) [Compound 1075202]”: the “YAP1 (% UTC)” value is given as 26 % UTC.

The same series, now with this note: Table 17; A-431 cells, 5,000 cells per well, free uptake, 2,000 nM, approximately 48 hours; RTS4814; normalized to RIBOGREEN; Yap1 mRNA relative to untreated control cells.
Turning to “1074979 (antisense kA*kT*kT*dG*d[5mC]*d[5mC]*dA*dG*dT*dT*d[5mC]*dT*dT*kG*kT*kT) [Compound 1074979]”, the “YAP1 (% UTC)” value is given as 32 % UTC.
With “1075011 (antisense kG*k[5mC]*kA*d[5mC]*dA*dA*dT*dA*dA*dT*d[5mC]*dG*dA*kA*k[5mC]*kA) [Compound 1075011]”, the “YAP1 (% UTC)” value stood at 44 % UTC.
For “1075043 (antisense k[5mC]*k[5mC]*k[5mC]*d[5mC]*dA*dA*dA*dA*dG*d[5mC]*d[5mC]*d[5mC]*dT*kA*k[5mC]*kT) [Compound 1075043]”, the “YAP1 (% UTC)” value was determined as 73 % UTC.
As for “1075075 (antisense kA*kA*kT*dT*dT*dT*dA*dT*dA*dA*dG*d[5mC]*d[5mC]*k[5mC]*kA*k[5mC]) [Compound 1075075]”, the “YAP1 (% UTC)” value amounted to 9 % UTC.
For the substance “1075107 (antisense kT*kA*kA*dA*dA*dA*d[5mC]*dA*dT*dT*dG*dT*dG*kG*k[5mC]*k[5mC]) [Compound 1075107]”, the “YAP1 (% UTC)” value was 114 % UTC.
The same measure, in the same setting: then “1075139 (antisense k[5mC]*k[5mC]*k[5mC]*dA*dA*dA*dT*dA*dA*dT*dA*dG*dA*kT*kA*k[5mC]) [Compound 1075139]”, with 65 % UTC; and “1075171 (antisense k[5mC]*k[5mC]*k[5mC]*d[5mC]*dA*dA*dT*dA*dT*dA*dA*dA*dG*kA*kA*k[5mC]) [Compound 1075171]”, with 88 % UTC; and “1075203 (antisense kT*kA*kA*dT*dT*dA*dT*dA*dT*dA*dA*dG*dG*k[5mC]*kT*kG) [Compound 1075203]”, with 68 % UTC.

Staying with this series, now noted: Yap1 mRNA remaining as percent of untreated control; 3-10-3 cEt gapmers; A-431 cells; Table 36.
Consider “1074998 (antisense k[5mC]*kA*k[5mC]*dG*d[5mC]*dG*dA*d[5mC]*d[5mC]*dT*dA*d[5mC]*dT*kA*kA*kG) [compound 1074998]”, for which the “YAP1 (% UTC)” value was determined as 61 % UTC.
For “1075030 (antisense kT*kT*kA*dA*dT*dA*dT*dT*d[5mC]*dG*dA*d[5mC]*dA*k[5mC]*kT*kG) [compound 1075030]”, the “YAP1 (% UTC)” value is 37 % UTC.
On to “1075062 (antisense k[5mC]*kT*kT*dT*dA*dA*d[5mC]*d[5mC]*dT*dT*dA*dT*dA*k[5mC]*kT*kT) [compound 1075062]”, for which the “YAP1 (% UTC)” value is recorded as 58 % UTC.
Consider “1075094 (kG*kA*kT*dA*dA*dA*dT*dG*dT*dA*dA*d[5mC]*dT*kA*kG*k[5mC]; antisense) [compound 1075094]”, for which the “YAP1 (% UTC)” value worked out at 10 % UTC.
Same read-out and setting: then “1075126 (k[5mC]*kT*kT*dA*dA*dA*dT*d[5mC]*dT*dT*dA*dG*d[5mC]*kA*kA*k[5mC]; antisense) [compound 1075126]”, with 20 % UTC.
Turning to “1075158 (k[5mC]*kG*kG*d[5mC]*dA*dA*dA*dA*dA*d[5mC]*dA*dA*dA*kA*kT*k[5mC]; antisense) [compound 1075158]”, the “YAP1 (% UTC)” value turned out to be 76 % UTC.
As for “1075190 (kT*kA*kT*d[5mC]*dA*dA*dG*dG*dA*dT*dT*d[5mC]*dA*kG*kT*kA; antisense) [compound 1075190]”, the “YAP1 (% UTC)” value was found to be 45 % UTC.

Staying with this series, now noted: Yap1 mRNA remaining as percent of untreated control; 3-10-3 cEt gapmers; A-431 cells; Table 37.
Regarding “1074967 (antisense kG*kA*k[5mC]*dA*dA*dA*dT*dT*dG*dA*dA*dG*dT*kG*kT*kT) [compound 1074967]”, the “YAP1 (% UTC)” value worked out at 116 % UTC.
Regarding “1074999 (antisense kA*kA*k[5mC]*d[5mC]*dA*dA*d[5mC]*dA*d[5mC]*dG*d[5mC]*dG*dA*k[5mC]*k[5mC]*kT) [compound 1074999]”, the “YAP1 (% UTC)” value is given as 77 % UTC.
With “1075031 (antisense kA*kT*kT*dT*dA*dA*dT*dA*dT*dT*d[5mC]*dG*dA*k[5mC]*kA*k[5mC]) [compound 1075031]”, the “YAP1 (% UTC)” value was 52 % UTC.
Turning to “1075063 (antisense kT*kA*k[5mC]*dG*dG*dA*dA*dG*dG*d[5mC]*d[5mC]*dA*dA*k[5mC]*kT*kG) [compound 1075063]”, the “YAP1 (% UTC)” value came to 16 % UTC.
In the case of “1075095 (k[5mC]*kT*kT*dG*dA*dA*dA*dA*d[5mC]*dA*dA*dG*d[5mC]*k[5mC]*kA*k[5mC]; antisense) [compound 1075095]”, the “YAP1 (% UTC)” value came to 63 % UTC.
Consider “1075127 (kG*k[5mC]*kT*dA*dA*dA*dT*dT*dA*dT*dG*d[5mC]*dT*kA*kT*kT; antisense) [compound 1075127]”, for which the “YAP1 (% UTC)” value is reported as 79 % UTC.
Take “1075159 (k[5mC]*kA*kA*dA*dA*dA*dA*dT*d[5mC]*dA*d[5mC]*dG*dG*k[5mC]*kA*kA; antisense) [compound 1075159]”: the “YAP1 (% UTC)” value is listed as 63 % UTC.
As to “1075191 (kA*k[5mC]*kG*dG*dG*dA*dA*dA*dG*dA*dA*dA*dG*kG*k[5mC]*k[5mC]; antisense) [compound 1075191]”, the “YAP1 (% UTC)” value was determined as 83 % UTC.
